Measured values as given in publication PMC4102551, “Screening and Characterisation of Antimicrobial Properties of Semisynthetic Betulin Derivatives” (PLoS ONE, 2014).
Values after ≈ are worked out from the molar mass of the structure shown. Values joined by “and” are separate entries in the source; they are usually repeats but may differ in a detail not shown here. Equal values may be shown once. Read-outs that look alike come from different tables or passages of the source.

Columns and labels:
[1] = Storage stability of samples; assay type: physicochemical; conditions: ambient temperature, air atmosphere, several years
Text: Betulin 1 is a stable compound, as we have not noticed any degradation of samples even if stored at ambient temperature under air atmosphere for several years. […] Thus, instability issues cannot be seen as a major concern regarding the betulin derivatives of this study.

E. aerogenes ATCC 13048 = assay: Broth microdilution assay, E. aerogenes; assay type: cell-based, Enterobacter aerogenes; conditions: Klebsiella aerogenes, ATCC13048, 24 h, 50 µM, 24 h, inhibition of growth, mean ± SD; read-out: Inhibitory effect (%) E. aerogenes ATCC 13048
Summary of the method: (§1)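 Broth microdilution per CLSI/EUCAST in Mueller Hinton II broth, 5×10^5 cfu/mL, 24 h at 37°C with agitation; growth by absorbance at 620 nm versus controls. Compounds first screened at 50 µM.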

E. coli ATCC 25922 = assay: Broth microdilution assay, E. coli; assay type: cell-based, Escherichia coli; conditions: Escherichia coli, ATCC25922, 24 h; read-out: Inhibitory effect (%) E. coli ATCC 25922
Summary of the method: as §1

E. faecalis ATCC 29212 = assay: Broth microdilution assay, E. faecalis; assay type: cell-based, Enterococcus faecalis; conditions: 50 µM, 24 h, inhibition of growth, mean ± SD; for inhibition at 50 µM: Enterococcus faecalis, ATCC29212, 24 h, read-out: Inhibitory effect (%) E. faecalis ATCC 29212
Summary of the method: as §1

E. coli = system: E. coli; design: method as in earlier work; conditions: ref 32; cited from earlier work
P. aeruginosa ATCC 27853 = assay: Broth microdilution assay, P. aeruginosa; assay type: cell-based, Pseudomonas aeruginosa; conditions: Pseudomonas aeruginosa, ATCC27853, 24 h; read-out: Inhibitory effect (%) P. aeruginosa ATCC 27853
Summary of the method: as §1

P. aeruginosa = system: P. aeruginosa; design: method as in earlier work; conditions: ref 32; cited from earlier work
S. aureus ATCC 25923 = assay: Broth microdilution assay, S. aureus; assay type: cell-based, Staphylococcus aureus; conditions: 50 µM, 24 h, inhibition of growth, mean ± SD; for inhibition at 50 µM: Staphylococcus aureus, ATCC25923, 24 h, read-out: Inhibitory effect (%) S. aureus ATCC 25923
Summary of the method: as §1

S. aureus = system: S. aureus; design: method as in earlier work; conditions: ref 32; cited from earlier work
Streptococcus pyogenes = system: Streptococcus pyogenes; design: method as in PMID 29255382; conditions: ref 11; cited from earlier work
Huh-7 cells = assay: in vitro; assay type: cell-based, human; conditions: 50 µM
Summary of the method: (§2)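 Cytotoxicity read-out: intracellular ATP (CellTiter-Glo luminescence) in Huh-7 hepatoma cells seeded at 20000 cells/well, cultured overnight, then exposed to compounds for 24 h at 37°C in 5% FBS medium. Polymyxin B sulphate (15000 IU/mL) served as positive control.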

in vitro = assay type: cell-based, human; conditions: human
Summary of the method: as §2

C. albicans = conditions: cited from earlier work
C. albicans ATCC 90028 = assay: Broth microdilution assay, C. albicans; assay type: cell-based, Candida albicans; conditions: for inhibition at 50 µM: Candida albicans, ATCC90028, 48 h, read-out: Inhibitory effect (%) C. albicans ATCC 90028
Summary of the method: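 Candida albicans ATCC 90028 was grown on Sabouraud Dextrose Agar at 27°C for 16–18 h, then suspended in sterile 0.9% saline. Broth microdilution in clear 96-well plates mixed equal volumes of yeast suspension and diluted sample. Plates were incubated with agitation at 35°C for 48 h. Absorbance at 620 nm was read at 0, 24 and 48 h, and growth inhibition was expressed as a percentage relative to controls.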

[2] = system: S. aureus infected HL cell line; assay: Host-pathogen co-culture assay; assay type: cell-based, Staphylococcus aureus; conditions: at the highest concentration (range 0.024–100 µM), 3 days
Protocol: Briefly, HL cells used as the host cell were seeded at 40000 cells/well on black-walled microplates (Perkin Elmer) and incubated at 37°C, 5% CO2 and 95% humidity for 24 h. Cell monolayers were infected with 2000 cfus of S. aureus in RPMI 1640 media without antibiotics. Compounds were added to the media at different concentrations selected on the basis of the MIC determinations. […] Co-cultures were incubated for 3 days at 37°C, 5% CO2 and 95% humidity. Following the incubation period the cells were washed with 200 µL 6.7 mM PBS, pH 7.4, and finally, 200 µL 6.7 mM PBS, pH 7.4 containing 10 µg/mL fluorescein diacetate (FDA) was added to the cells to evaluate the survival of the host cells. After 45 min incubation at room temperature (RT), fluorescence was measured at 485 nm excitation and 538 nm emission with a Victor plate reader.
For studying simultaneously the efficacy and tolerability of antibacterial compounds, an assay based on co-culturing of a secondary human cell line (HL, derived originally from human lung) and a pathogen was used. […] In the assay, host cells are incubated in the presence of the test sample and are infected with bacteria. After 3 days of incubation, the host cell survival is determined using fluorescein diacetate to measure the viability of the host cells. […]

Compound | inhibition at 50 µM (E. aerogenes ATCC 13048) [%] | inhibition at 50 µM (E. coli ATCC 25922) [%] | Inhibitory effect (%) E. faecalis ATCC 29212 (E. faecalis ATCC 29212) | inhibition at 50 µM (E. faecalis ATCC 29212) [%] | inhibition at 50 µM (P. aeruginosa ATCC 27853) [%] | inhibition at 50 µM (S. aureus ATCC 25923) [%] | inhibition at 50 µM (C. albicans ATCC 90028) [%] | further results
C=C(C)[C@@H]1CC[C@]2(CO)CC[C@]3(C)[C@H](CC[C@@H]4[C@@]5(C)CC[C@H](O)C(C)(C)[C@@H]5CC[C@]43C)[C@@H]12 [Compound 1, lup-20(29)-ene-3β, 28-diol] | 5.7 ± 2.1 | 1.3 ± 5.1 | 19.7±6.2% | 20 | -1.2 ± 2.5 | -6.7 ± 6.4 | -27.5 ± 15 | Stability on storage [1]: stable; MIC against E. coli (E. coli): 250 µg/mL (≈ 565 µM); MIC against P. aeruginosa (P. aeruginosa): 250 µg/mL (≈ 565 µM); MIC against S. aureus (S. aureus): 250 µg/mL (≈ 565 µM); MIC against S. pyogenes (Streptococcus pyogenes): 85 µg/mL (≈ 192 µM); Cytotoxicity (%) Huh-7 cells (Huh-7 cells; 24 h exposure, ATP content, 5% FBS): 13.7±2.7%; cytotoxicity at 24 h, 50 µM (in vitro; 50 µM, 24 h exposure, ATP content, 5% FBS, read-out: Cytotoxicity (%) Huh-7 cells): 14%; MIC against C. albicans (C. albicans; ref 12): 250 µg/mL (≈ 565 µM); MIC against C. albicans (C. albicans; ref 41): 180 µg/mL (≈ 407 µM); Inhibitory effect (%) C. albicans ATCC 90028 (C. albicans ATCC 90028; 50 µM, 48 h at 35°C, inhibition of growth, mean ± SD): inactive
C=C(C)[C@@H]1CC[C@]2(C(=O)O)CC[C@]3(C)C(CCC4[C@@]5(C)CCC(=O)C(C)(C)C5CC[C@]43C)C12 (stereo partly shown) [Compound 23, betulonic acid] | 21.8 ± 4.1 | 9.1 ± 8.9 | 74% and 74.3±0.8% | > 70 | 9.5 ± 2.5 | 51 | 25.2 ± 11 | Activity in host-pathogen co-culture assay [2]: 27%; Inhibitory effect (%) S. aureus ATCC 25923 (S. aureus ATCC 25923): 51.1±7.3%; Cytotoxicity (%) Huh-7 cells (Huh-7 cells; human, 24 h): 17.8±12.6%; cytotoxicity at 24 h, 50 µM (in vitro; Cytotoxicity (%) Huh-7 cells): 18%
